# According to US4309559A, “Sulphonamides useful as pesticides” (FBC Limited, priority 1977, dated 1982):
# What was measured:
# Format in all cases: in vivo
# Peas (Pisum sativum) [1] = experiment: Soil incorporation (attaclay/sand dust), growth regulatory or herbicidal effects, peas; conditions: Lathyrus oleraceus, 504 h, 21 days, 0=no effect, read-out: growth regulatory or herbicidal effect score; for pest or weed control at 26 µg/mL: soil incorporation 26 ppm, 100=complete kill
# Procedure, shortened: (§1)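 Scores (0-100, where 100 means complete kill) were given by visual assessment against untreated plants after 21 days in a 22° C controlled environment room with 14 h of 13,000 lux light daily. Seeds had been sown into compost containing the attaclay/sand dust formulation at 26 or 130 ppm w/v.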
# [2] = tested on: Blackgrass (Alopecurus myosuroides); experiment: Pre-emergence soil surface spray, blackgrass; conditions: soil surface spray 2.8 kg/ha, 21 days, 0=no effect, 100=complete kill
# From the text: (§2) Seeds of the plant species listed below were sown in John Innes I potting compost in aluminium pans, 19 cm long×9.5 cm wide×5.0 cm high, one species per pan. The soil surface was then sprayed with a compound listed below, formulated as a solution in 1:1 by volume aqueous acetone except for the compound of Example 44 which was formulated as an aqueous suspension containing 1000 parts per million of the wetting agent Lissapol NX (nonylphenol/ethylene oxide condensate). Each compound was applied at a rate of 2.8 kg of active ingredient per hectare in 450 liters of spray liquid per hectare. The pans were then watered, and placed in a controlled environment room (22° C., relative humidity 65-85%, 14 hours per day artificial illumination at 17,000 lux) for 21 days. The plants were then visually assessed for any growth regulatory or herbicidal effects. All differences from an untreated control were scored on a scale from 0-100, where 0 signifies no effect and 100 signifies complete kill.
# Oat (Avena sativa) = experiment: Post-emergence foliar spray, herbicidal/growth regulant response, oat; conditions: 168 h, foliar spray 11.2 kg/ha, 7 days, 0=no effect, 100=complete kill, read-out: herbicidal or growth regulant response index
# Procedure, shortened: (§3)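 Post-emergence treatment at 11.2 kg/ha (two-week-old seedlings; 22° C., 65-85% relative humidity). Seven-day visual rating relative to untreated plants, where 100 means complete kill.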
# [3] = tested on: Sugarbeet (Beta vulgaris); experiment: Post-emergence foliar spray, herbicidal/growth regulant response, sugarbeet; conditions: 168 h, foliar spray 11.2 kg/ha, 7 days, 0=no effect, 100=complete kill, read-out: herbicidal or growth regulant response index
# Procedure, shortened: as §3
# [4] = tested on: Linseed (Linum usitatissimum); experiment: Soil incorporation (attaclay/sand dust), growth regulatory or herbicidal effects, linseed; conditions: 504 h, 21 days, 0=no effect, read-out: growth regulatory or herbicidal effect score; for pest or weed control at 26 µg/mL: soil incorporation 26 ppm, 100=complete kill
# Procedure, shortened: as §1
# [5] = tested on: Chickweed (Stellaria media); experiment: Pre-emergence soil surface spray, chickweed; conditions: soil surface spray 2.8 kg/ha, 21 days, 0=no effect, 100=complete kill
# From the text: as §2
# Barley (Hordeum vulgare) = experiment: Pre-emergence soil surface spray, barley; conditions: soil surface spray 2.8 kg/ha, 21 days, 0=no effect, 100=complete kill
# From the text: as §2
# Oats (Avena sativa) = experiment: Soil incorporation (attaclay/sand dust), growth regulatory or herbicidal effects, oats; conditions: 504 h, 21 days, 0=no effect, read-out: growth regulatory or herbicidal effect score; for plant injury at 26 µg/mL: soil incorporation 26 ppm, 100=complete kill
# Procedure, shortened: as §1
# Maize (Zea mays) = experiment: Soil incorporation (attaclay/sand dust), growth regulatory or herbicidal effects, maize; conditions: 504 h, 21 days, 0=no effect, read-out: growth regulatory or herbicidal effect score; for plant injury at 26 µg/mL: soil incorporation 26 ppm, 100=complete kill
# Procedure, shortened: as §1
# [6] = tested on: Tomato (Lycopersicon esculentum); experiment: Pre-emergence soil surface spray, tomato; conditions: soil surface spray 2.8 kg/ha, 21 days, 0=no effect, 100=complete kill
# From the text: as §2
# Mustard (Sinapis alba) [7] = experiment: Pre-emergence soil surface spray, mustard; conditions: soil surface spray 2.8 kg/ha, 21 days, 0=no effect, 100=complete kill
# From the text: as §2
# [8] = tested on: Barnyardgrass (Echinochloa crus-galli); experiment: Pre-emergence soil surface spray, barnyardgrass; conditions: soil surface spray 2.8 kg/ha, 21 days, 0=no effect, 100=complete kill
# From the text: as §2
# [9] = tested on: cucumber powdery mildew Erysiphe cichoracearum; experiment: Cucumber powdery mildew control on cucumber plants; conditions: 2000 mg per liter; soil and leaves; 14 days; controls less than 5%
# Cotton (Gossypium sp.) = experiment: Pre-emergence soil surface spray, cotton; conditions: soil surface spray 2.8 kg/ha, 21 days, 0=no effect, 100=complete kill
# From the text: as §2
# [10] = tested on: Linseed (Linum usitatissimum); experiment: Post-emergence foliar spray, herbicidal/growth regulant response, linseed; conditions: 168 h, foliar spray 11.2 kg/ha, 7 days, 0=no effect, 100=complete kill, read-out: herbicidal or growth regulant response index
# Procedure, shortened: as §3
# Wild Oat (Avena fatua) = experiment: Pre-emergence soil surface spray, wild oat; conditions: soil surface spray 2.8 kg/ha, 21 days, 0=no effect, 100=complete kill
# From the text: as §2
# [11] = tested on: Crabgrass (Digitaria sanguinalis); experiment: Pre-emergence soil surface spray, crabgrass; conditions: soil surface spray 2.8 kg/ha, 21 days, 0=no effect, 100=complete kill
# From the text: as §2
# Mustard (Sinapis alba) [12] = experiment: Post-emergence foliar spray, herbicidal/growth regulant response, mustard; conditions: 168 h, foliar spray 11.2 kg/ha, 7 days, 0=no effect, 100=complete kill, read-out: herbicidal or growth regulant response index
# Procedure, shortened: as §3
# [13] = tested on: Ryegrass (Lolium perenne); experiment: Soil incorporation (attaclay/sand dust), growth regulatory or herbicidal effects, ryegrass; conditions: 504 h, 21 days, 0=no effect, read-out: growth regulatory or herbicidal effect score; for pest or weed control at 26 µg/mL: soil incorporation 26 ppm, 100=complete kill
# Procedure, shortened: as §1
# [14] = tested on: Ryegrass (Lolium perenne); experiment: Post-emergence foliar spray, herbicidal/growth regulant response, ryegrass; conditions: 168 h, foliar spray 11.2 kg/ha, 7 days, 0=no effect, 100=complete kill, read-out: herbicidal or growth regulant response index
# Procedure, shortened: as §3
# Carrot (Daucus carota) = experiment: Pre-emergence soil surface spray, carrot; conditions: soil surface spray 2.8 kg/ha, 21 days, 0=no effect, 100=complete kill
# From the text: as §2
# Mustard (Sinapis alba) [15] = experiment: Soil incorporation (attaclay/sand dust), growth regulatory or herbicidal effects, mustard; conditions: 504 h, 21 days, 0=no effect, read-out: growth regulatory or herbicidal effect score; for pest or weed control at 26 µg/mL: soil incorporation 26 ppm, 100=complete kill
# Procedure, shortened: as §1
# Peas (Pisum sativum) [16] = experiment: Post-emergence foliar spray, herbicidal/growth regulant response, peas; conditions: Lathyrus oleraceus, 168 h, foliar spray 11.2 kg/ha, 7 days, 0=no effect, 100=complete kill, read-out: herbicidal or growth regulant response index
# Procedure, shortened: as §3
# [17] = tested on: Fathen (Chenopodium album); experiment: Pre-emergence soil surface spray, fathen; conditions: soil surface spray 2.8 kg/ha, 21 days, 0=no effect, 100=complete kill
# From the text: as §2
# [18] = tested on: French beans (Phaseolus vulgaris); experiment: Post-emergence foliar spray, herbicidal/growth regulant response, French beans; conditions: foliar spray 11.2 kg/ha, 7 days, 0=no effect, 100=complete kill
# Description: Seeds of the plant species listed below were sown in anodised aluminium pans, 19 cm long×9.5 cm wide×5 cm deep, containing John Innes I potting compost. They were then watered and placed in a controlled environment room (22° C.; 65-85% relative humidity; 14 hours per day artificial illumination at 13,000 lux). Fourteen days after sowing, the seedlings received a foliar spray of a compound listed below, formulated as a solution in 1:1 by volume aqueous acetone. The concentration of active ingredient and volume of application were adjusted so as to be equivalent to a rate of 11.2 kg/ha in 450 liters per hectare. After seven days growth in the controlled environment room, the plants were visually assessed for any herbicidal or growth regulant response. All differences from the untreated control were scored according to an index where 0=no effect and 100=complete kill.
# The product of Example 95 was tested according to the procedure of Examples 49-55.
# [19] = tested on: Wheat (Triticum aestivum); experiment: Pre-emergence soil surface spray, wheat; conditions: soil surface spray 2.8 kg/ha, 21 days, 0=no effect, 100=complete kill
# From the text: as §2
# Tomato = experiment: Soil incorporation (I), tomato; conditions: I soil incorporation 6.5 ppm, 21 days, 0=no effect, 100=complete suppression
# From the text: (§4) Each of the compounds listed below was formulated as: […]
# (§5) (I) an attaclay/sand dust and incorporated in John Innes I potting compost at a rate equivalent to 6.5 and 3.25 parts per million weight/volume of active ingredient to soil and placed in anodised aluminium pans, 19 cm long×9.5 cm wide×5.0 cm high. This is approximately equivalent to a surface application of 2.8 and 1.4 kg active ingredient per hectare cultivated to a depth of 5 cm. Seeds of the species listed below were sown in the treated soil, one species per pan, watered and placed in a controlled environment room (22° C.; 65-85% relative humidity and 14 hours artificial illumination at 17,000 lux) for 21 days.
# (§6) The plants were then visually assessed for any growth regulatory or herbicidal effects. All differences from an untreated control were scored on a scale from 0-100, where 0 signifies no effect and 100 signifies complete suppression.
# (§7) The results are shown in the following table where I stands for soil incorporation and II for surface spray.
# Carrot = experiment: Soil incorporation (I), carrot; conditions: I soil incorporation 6.5 ppm, 21 days, 0=no effect, 100=complete suppression
# From the text: as §4, §5, §6, §7
# Chickweed = experiment: Soil incorporation (I), chickweed; conditions: I soil incorporation 6.5 ppm, 21 days, 0=no effect, 100=complete suppression
# From the text: as §4, §5, §6, §7
# Mustard = experiment: Soil incorporation (I), mustard; conditions: I soil incorporation 6.5 ppm, 21 days, 0=no effect, 100=complete suppression
# From the text: as §4, §5, §6, §7
# Fathen = experiment: Soil incorporation (I), fathen; conditions: I soil incorporation 6.5 ppm, 21 days, 0=no effect, 100=complete suppression
# From the text: as §4, §5, §6, §7
# Cotton = experiment: Soil incorporation (I), cotton; conditions: I soil incorporation 6.5 ppm, 21 days, 0=no effect, 100=complete suppression
# From the text: as §4, §5, §6, §7
# [20] = soil incorporation 130 ppm, 100=complete kill/suppression
smiles,measurement,setting,value
CCOC(=O)C(C)N(c1c(C)cccc1C)S(C)(=O)=O (stereo not drawn) [Example 15],pest or weed control at 26 µg/mL,Peas (Pisum sativum) [1],0%
same,growth regulatory or herbicidal effect score,[2],20
same,plant injury at 11200 g/ha,Oat (Avena sativa),5%
same,plant injury at 11200 g/ha,[3],90%
same,pest or weed control at 26 µg/mL,[4],70%
same,growth regulatory or herbicidal effect score,[5],30
same,growth regulatory or herbicidal effect score,Barley (Hordeum vulgare),0
same,plant injury at 26 µg/mL,Oats (Avena sativa),20%
same,plant injury at 26 µg/mL,Maize (Zea mays),50%
same,growth regulatory or herbicidal effect score,[6],20
same,growth regulatory or herbicidal effect score,Mustard (Sinapis alba) [7],10
same,growth regulatory or herbicidal effect score,[8],40
same,"fungus control, cucumber powdery mildew",[9],82%
same,growth regulatory or herbicidal effect score,Cotton (Gossypium sp.),0
same,pest or weed control at 11200 g/ha,[10],90%
same,growth regulatory or herbicidal effect score,Wild Oat (Avena fatua),5
same,growth regulatory or herbicidal effect score,[11],100
same,pest or weed control at 11200 g/ha,Mustard (Sinapis alba) [12],90%
same,pest or weed control at 26 µg/mL,[13],100%
same,pest or weed control at 11200 g/ha,[14],10%
same,growth regulatory or herbicidal effect score,Carrot (Daucus carota),0
same,pest or weed control at 26 µg/mL,Mustard (Sinapis alba) [15],100%
same,pest or weed control at 11200 g/ha,Peas (Pisum sativum) [16],5%
same,growth regulatory or herbicidal effect score,[17],100
same,herbicidal or growth regulant response index,[18],70
same,growth regulatory or herbicidal effect score,[19],0
CCOC(=O)C(CC)N(c1c(C)cccc1C)S(C)(=O)=O (stereo not drawn) [Example 95],pest or weed control at 26 µg/mL,Peas (Pisum sativum) [1],20%
same,pest or weed control at 130 µg/mL,Peas (Pisum sativum) [1]; [20],30%
same,growth regulatory or herbicidal effect score,Tomato,90
same,plant injury at 11200 g/ha,Oat (Avena sativa),20%
same,plant injury at 11200 g/ha,[3],100%
same,pest or weed control at 26 µg/mL,[4],0%
same,pest or weed control at 130 µg/mL,[4]; [20],80%
same,plant injury at 26 µg/mL,Oats (Avena sativa),0%
same,plant injury at 130 µg/mL,Oats (Avena sativa); [20],100%
same,plant injury at 26 µg/mL,Maize (Zea mays),50%
same,plant injury at 130 µg/mL,Maize (Zea mays); [20],100%
same,growth regulatory or herbicidal effect score,Carrot,0
same,growth regulatory or herbicidal effect score,Chickweed,90
same,pest or weed control at 11200 g/ha,[10],25%
same,pest or weed control at 11200 g/ha,Mustard (Sinapis alba) [12],100%
same,pest or weed control at 26 µg/mL,[13],90%
same,pest or weed control at 130 µg/mL,[13]; [20],100%
same,pest or weed control at 11200 g/ha,[14],15%
same,growth regulatory or herbicidal effect score,Mustard,50
same,growth regulatory or herbicidal effect score,Fathen,100
same,growth regulatory or herbicidal effect score,Cotton,5
same,pest or weed control at 26 µg/mL,Mustard (Sinapis alba) [15],90%
same,pest or weed control at 130 µg/mL,Mustard (Sinapis alba) [15]; [20],100%
same,pest or weed control at 11200 g/ha,Peas (Pisum sativum) [16],15%
same,herbicidal or growth regulant response index,[18],100
